Data as given in patent publication US9827223B2 (priority 2001, dated 2017).
Where two headings read alike, the source gives them in different places.

Tests used:
VR1eGFP [1] = biological target: T1, VR1eGFP (Rattus norvegicus, UniProt O35433); type: cell-based
T1 construct: expressed in transfected cells; host or cells: Cos7 and HEK293 cells, transient transfection

VR1eGFP [2] = biological target: T1, VR1eGFP; test: cell-based; conditions: N=3; read-out: ED50 of induced Ca2+ uptake
[3] = biological target: T2, VR1ε (C-terminal epsilon epitope-tagged vanilloid 1 receptor) (Rattus norvegicus, UniProt O35433); type: cell-based
T2 construct: expressed in transfected cells; host or cells: NIH 3T3 cells, G418-selected colony A5, pMTH-VR1ε plasmid

VR1eGFP-expressing cells = type: cell-based
VR1eGFP [4] = biological target: T1, VR1eGFP; type: cell-based; conditions: 1 nM
trigeminal ganglion [5] = type: in vivo, Sprague Dawley rats
trigeminal ganglion [6] = system: trigeminal ganglion; set-up: species or system Sprague Dawley rats; conditions: rat, in vivo
[7] = system: C-fiber neurons of the trigeminal ganglion; set-up: species or system Sprague Dawley rats; conditions: rat, in vivo
[8] = set-up: species or system Sprague Dawley rats; conditions: rat, in vivo
[9] = set-up: species or system Sprague Dawley rats; conditions: rat, in vivo; remark: listed apart in the source
dorsal root ganglion = system: dorsal root ganglion; set-up: species or system patient; conditions: human, in vivo
[10] = rat, in vivo, cited from earlier work
eGFP- and e-tagged VR1 = biological target: T3, eGFP- and e-tagged VR1 (Rattus norvegicus, UniProt O35433); type: binding
T3 construct: expressed in transfected cells; host or cells: Cos7 cells
T3 sequence (O35433 whole entry): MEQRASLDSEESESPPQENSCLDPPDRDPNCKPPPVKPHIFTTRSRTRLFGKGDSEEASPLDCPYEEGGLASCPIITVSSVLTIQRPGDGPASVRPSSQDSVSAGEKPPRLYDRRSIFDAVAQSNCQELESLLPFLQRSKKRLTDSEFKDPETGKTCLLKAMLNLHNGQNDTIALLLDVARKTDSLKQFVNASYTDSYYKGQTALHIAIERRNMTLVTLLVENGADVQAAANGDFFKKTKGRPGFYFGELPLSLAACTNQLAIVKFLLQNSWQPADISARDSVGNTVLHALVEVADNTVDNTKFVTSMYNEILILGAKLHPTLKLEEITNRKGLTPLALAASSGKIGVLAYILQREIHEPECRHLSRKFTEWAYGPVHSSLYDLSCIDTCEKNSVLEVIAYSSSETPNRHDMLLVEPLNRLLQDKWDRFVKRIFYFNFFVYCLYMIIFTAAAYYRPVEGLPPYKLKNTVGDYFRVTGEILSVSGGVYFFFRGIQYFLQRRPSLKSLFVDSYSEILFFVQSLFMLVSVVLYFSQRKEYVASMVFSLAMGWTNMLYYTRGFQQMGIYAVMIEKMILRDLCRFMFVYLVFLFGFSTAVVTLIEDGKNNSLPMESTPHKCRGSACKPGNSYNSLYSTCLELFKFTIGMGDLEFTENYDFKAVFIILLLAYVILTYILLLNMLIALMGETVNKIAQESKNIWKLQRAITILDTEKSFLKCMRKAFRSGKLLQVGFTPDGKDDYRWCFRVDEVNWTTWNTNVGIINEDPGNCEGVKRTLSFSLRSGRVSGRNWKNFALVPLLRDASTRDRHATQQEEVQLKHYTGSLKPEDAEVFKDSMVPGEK

T1 sequence (O35433 whole entry): as above
T2 sequence (O35433 whole entry): as above

Compound: C=C(C)[C@]12C[C@@H](C)[C@@]34O[C@](Cc5ccccc5)(O[C@@H]1[C@@H]3C=C(COC(=O)Cc1ccc(O)c(OC)c1)C[C@]1(O)C(=O)C(C)=C[C@@H]41)O2 [RTX, Resiniferatoxin]
- currents and capacitance change in non-transfected cells (VR1eGFP [1]): neither evoked currents nor induced a change in capacitance
- loss of plasma membrane (VR1eGFP [1]): about 600 μm^2
- receptor desensitization (VR1eGFP [1]): complete desensitization
- drop of membrane capacitance of VR1eGFP-transfected cells (VR1eGFP [1]; 125 pM): 6±2.5 pF
- EC50 (VR1eGFP [2]): 0.1 ± 0.05 nM
- 45Ca2+-uptake above the base line of non-transfected NIH3T3 cells [3]: > 50 fold
- ER, plasma membrane and mitochondria morphology (VR1eGFP-expressing cells): dramatic fragmentation of the ER
- nuclear membrane fragmentation at lower doses (VR1eGFP-expressing cells): slower nuclear membrane fragmentation
- mitochondrial reaction (VR1eGFP-expressing cells; 1 nM): mitochondria reacted rapidly
- time to bursting of the plasma membrane (VR1eGFP-expressing cells; 1 nM): about 45 minutes
- peak [Ca2+]i (VR1eGFP [4]): 500 nM
- time to elevation of [Ca2+]i (VR1eGFP [4]): ≤ 10 s
- eye wipes in the first minute (trigeminal ganglion [5]; n=4): 7±3 wipes
- eye wipes in the first minute (trigeminal ganglion [5]; rat, in vivo): no eye wipes
- plasma extravasation (trigeminal ganglion [6]): dramatic blockade
- fate of CGRP-stained cells in the injected ganglion [7]: killed
- paw withdrawal latency [8]: 18 ± 1.2 s
- mechanical pinch sensitivity [9]: No attenuation
- symptoms of chronic pain (dorsal root ganglion): reduction of the symptoms of chronic pain
- time without restoration of pain sensitivity (thermal analgesia) ([10]; sc): over 7 days

Compound: COc1cc(CNC(=O)CCCC/C=C/C(C)C)ccc1O [capsaicin]
- current induced in voltage-clamped VR1eGFP cells (VR1eGFP [1]): induced a large inward current
- mitochondrial reaction (VR1eGFP-expressing cells; 1 uM): mitochondria reacted rapidly
- thermal analgesia [10]: No thermal analgesia

Compound: Oc1cc2c(cc1O)CN(C(=S)NCCc1ccc(Cl)cc1)CCC2 [capsazepine]
- effect on VR1eGFP-mediated current (VR1eGFP [1]): attenuated
- inhibition of [3H]RTX binding (eGFP- and e-tagged VR1): almost completely inhibited
